Assay results taken from patent US8168650B2, “Therapeutic uses of bicyclic ligands of sigma 2 receptor” (priority 2006, dated 2012).
“Also recorded” adds a separate entry of the source. Structures can show the parent of a compound that is named as a salt. Where two headings read alike, the source gives them in different places.

Tests used:
[1] = molecular target: T1, σ1 receptor (Cavia porcellus, UniProt Q60492); assay: biochemical
Description: (§1) In vitro binding studies were conducted in order to determine the affinity of the target compounds at σ1 and σ2 receptors.
(§2) In this example, test compounds were dissolved in N,N-dimethylformamide (DMF), dimethylsulfoxide (DMSO) or ethanol and then diluted in 50 mM Tris-HCl, pH 7.4 buffer containing 150 mM NaCl and 100 mM EDTA. Membrane homogenates were made from guinea pig brain for σ1 binding assays and rat liver for σ2 binding assays. Membrane homogenates were diluted with 50 mM Tris-HCl buffer, pH 8.0, and incubated at 25° C. in a total volume of 150 μL in 96-well plates with the radioligand and test compounds with concentrations ranging from 0.1 nM to 10 μM. After incubation was completed, the reactions were terminated by the addition of 150 μL of ice-cold wash buffer (10 mM Tris-HCl, 150 mM NaCl, pH 7.4) using a 96-channel transfer pipette (Fisher Scientific, Pittsburgh, Pa.), and the samples harvested and filtered rapidly through 96-well fiberglass filter plate (Millipore, Billerica, Mass.) that had been presoaked with 100 μL of 50 mM Tris-HCl buffer, pH 8.0, for 1 h. Each filter was washed three times with 200 μL of ice cold wash buffer.
(§3) Ki values were calculated using the method of Cheng and Prusoff20 and represent mean values±SEM.

[2] = molecular target: T2, σ2 receptor (Rattus norvegicus, UniProt Q5U3Y7); assay: σ2 receptor binding assay, [3H]DTG or [3H]RHM-1; conditions: for σ1/σ2 Ratio: Ki for σ1/Ki for σ2
T2 construct: from tissue; host or cells: rat liver membrane homogenates
T2 sequence (Q5U3Y7 1-176): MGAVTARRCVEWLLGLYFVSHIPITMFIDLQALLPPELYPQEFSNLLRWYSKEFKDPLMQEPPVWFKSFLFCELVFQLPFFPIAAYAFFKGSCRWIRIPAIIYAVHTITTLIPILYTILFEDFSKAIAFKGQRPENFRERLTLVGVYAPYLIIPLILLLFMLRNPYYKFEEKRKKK
Description: as §1, §2, §3

[3] = molecular target: T1, σ1 receptor
Description: as §1, §2, §3

[4] = test system: pancreatic cancer cell lines (Panc-02, CFPAC-1, AsPC-1, Panc-1); assay: Apoptosis in pancreas cancer cell lines (TUNEL / cleaved caspase-3, flow cytometry); type: cell-based, mouse, human; conditions: 24 hours incubation
Description: Tumor cells were seeded at a density of approximately 0.2×10^6 cells per well in 12-well plates in 1.0 ml culture medium. Cells were split and pre-incubated at 37° C. in humidified 5% CO2 for more than 24 hours (Panc-02) and 48 hours (CFPAC-1, AsPC-1, Panc-1) to insure uniform growth conditions. Compounds were dissolved in DMSO and added to the culture medium at the concentrations indicated. The final concentration of DMSO in the cell culture medium was less than 1%. The cells were then incubated for 24 hours at 37° C. in humidified 5% CO2. The extent of apoptosis was subsequently measured as previously reported (Guelen, L., et al., Oncogene 2004, 23: 1153-1165). Briefly, staining was performed on trypsin-EDTA treated cultures that had been fixed with 1% paraformaldehyde and 90% methanol. Cell pellets were resuspended in TUNEL reagent (APO-BRDU kit, San Diego, Calif.) or cleaved caspase-3 antibody (Cell Signaling Technology, Inc. Boston, Mass.) and incubated overnight at room temperature (TUNEL) or 4° C. (cleaved caspase-3). After washing, cells were resuspended in fluorescein antibody or 7-AAD buffer and incubated for 1 hour at room temperature. Cell-associated fluorescence was determined using a flow cytometry (FACScan, BD Biosciences) and analyzed with CellQuest software (BD Biosciences).
At the highest dose tested (10 μM), all sigma-2 receptor ligands induced an additional 10-20% of the cells to undergo apoptosis (FIG. 15A). […] The pan-caspase inhibitor (Z-VAD-fmk) and caspase-3/7 inhibitor (DEVD-CHO) prevented sigma-2 receptor ligand-induced apoptosis in panc-02 cells, while the caspase-1 inhibitor (YVAD-CHO) had no effect (FIG. 15B).

[5] = test system: EMT-6 cells; conditions: EMT-6, 1 h pre-incubation with inhibitor (100 μM), MTS assay
Description: To determine the effect of blocking the caspase-dependent apoptotic pathway on sigma ligand-induced cell killing, the caspase inhibitors, Z-VAD-FMK or Z-DEVD-FMK (Calbiochem, San Diego, Calif.) were added to the culture medium 1 hour before the sigma ligands, and the MTS assay performed as described above.

[6] = Ki σ2, inhibiting binding of [3H]DTG or [3H]RHM-1 to rat liver homogenates, mean ± SEM
[7] = inhibiting binding of [3H]DTG or [3H]RHM-1 to rat liver homogenates, mean ± SEM, read-out: Ki σ2

T1 sequence (Q60492 whole entry): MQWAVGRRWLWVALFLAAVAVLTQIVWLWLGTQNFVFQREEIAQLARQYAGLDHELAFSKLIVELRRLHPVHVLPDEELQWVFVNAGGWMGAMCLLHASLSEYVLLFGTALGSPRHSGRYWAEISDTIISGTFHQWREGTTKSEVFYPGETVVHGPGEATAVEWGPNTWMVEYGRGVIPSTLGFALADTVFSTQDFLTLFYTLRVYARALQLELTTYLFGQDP

| Compound | Ki [1] | σ1/σ2 Ratio [2] | Ki [2, 6] | also measured |
| --- | --- | --- | --- | --- |
| COc1ccc(C)cc1NC(=O)OC1CC2CCCC(C1)N2CCCCN (stereo not drawn) [Compound 1a, N-(9-(4-Aminobutyl)-9-azabicyclo[3.3.1]nonan-3α-yl)-N-(2-methoxy-5-methyl-phenyl)carbamate hydrochloride] | 2.49 ± 0.271 µM | 193 | 0.0129 ± 0.00046 µM | affinity and selectivity for σ2 versus σ1 receptors (in words) [2]: moderate affinity and selectivity |
| COc1ccc(C)cc1NC(=O)O[C@H]1C[C@H]2CCC[C@@H](C1)N2CCCCCCN.Cl [Compound 1b, N-(9-(6-Aminohexyl)-9-azabicyclo[3.3.1]nonan-3α-yl)-N-(2-methoxy-5-methyl-phenyl)carbamate hydrochloride] |  | 273 |  | Ki [3]: 1.42 ± 0.439 µM; affinity and selectivity for σ2 versus σ1 receptors (in words) ([2]; hydrochloride): highest affinity and selectivity; also recorded: moderate affinity and selectivity; Ki [2, 7]: 0.00519 ± 0.0008 µM |
| COc1ccc(C)cc1NC(=O)OC1CC2CCCC(C1)N2CCCCCCCCCCN (stereo not drawn) [Compound 1c, N-(9-(10-Aminodecyl)-9-azabicyclo[3.3.1]nonan-3α-yl)-N-(2-methoxy-5-methylphenyl)carbamate hydrochloride] |  | 19 |  | Ki [3]: 0.134 ± 0.0119 µM; affinity and selectivity for σ2 versus σ1 receptors (in words) [2]: high affinity at σ2 receptor but low selectivity; Ki [2, 7]: 0.00707 ± 0.00127 µM |
| COc1ccc(C)cc1NC(=O)OC1CC2CCCC(C1)N2CCCCNCc1cccc(Br)c1 (stereo not drawn) [Compound 2a, N-(9-(4-(3′-Bromobenzylamino)butyl)-9-azabicyclo[3.3.1]nonan-3α-yl)-N-(2-methoxy-5-methylphenyl)carbamate oxalate] | 0.0663 ± 0.0053 µM | 21.66 | 0.00306 ± 0.00041 µM |  |
| COc1ccc(C)cc1NC(=O)OC1CC2CCCC(C1)N2CCCCNCc1cccc(F)c1 (stereo not drawn) [Compound 2b, N-(9-(4-(3′-Fluorobenzylamino)butyl)-9-azabicyclo[3.3.1]nonan-3α-yl)-N-(2-methoxy-5-methylphenyl)carbamate oxalate] | 0.0003 ± 5e-05 µM | 0.07 | 0.00413 ± 0.00033 µM |  |
| COc1ccc(C)cc1NC(=O)O[C@H]1C[C@H]2CCC[C@@H](C1)N2CCCCNCc1cccc(I)c1 [Compound 2c, N-(9-(4-(3′-Iodobenzylamino)butyl)-9-azabicyclo-[3.3.1]nonan-3α-yl)-N-(2-methoxy-5-methylphenyl)carbamate oxalate] | 0.0639 ± 0.00561 µM | 52.77 | 0.00121 ± 0.00014 µM |  |
| COc1ccc(C)cc1NC(=O)OC1CC2CCCC(C1)N2CCCCNCc1ccc(Br)cc1 (stereo not drawn) [Compound 2d, N-(9-(4-(4′-Bromobenzylamino)butyl)-9-azabicyclo[3.3.1]nonan-3α-yl)-N-(2-methoxy-5-methylphenyl)carbamates] | 0.0017 ± 0.00028 µM | 0.42 | 0.00407 ± 0.00061 µM |  |
| COc1ccc(C)cc1NC(=O)OC1CC2CCCC(C1)N2CCCCNCc1ccc(F)cc1 (stereo not drawn) [Compound 2e, N-(9-(4-(4′-Fluorobenzylamino)butyl)-9-azabicyclo[3.3.1]nonan-3α-yl)-N-(2-methoxy-5-methylphenyl)carbamate oxalate] | 0.0221 ± 0.00158 µM | 0.76 | 0.0291 ± 0.00348 µM |  |
| COc1ccc(C)cc1NC(=O)OC1CC2CCCC(C1)N2CCCCNCc1ccc(I)cc1 (stereo not drawn) [Compound 2f, N-(9-(4-(4′-Iodobenzylamino)butyl)-9-azabicyclo[3.3.1]nonan-3α-yl)-N-(2-methoxy-5-methylphenyl)carbamate oxalate] | 0.00034 ± 3e-05 µM | 0.08 | 0.004 ± 0.00054 µM |  |
| COc1ccc(C)cc1NC(=O)OC1CC2CCCC(C1)N2CCCCCCNCc1cccc(Br)c1 (stereo not drawn) [Compound 3a, N-(9-(6-(3′-Bromobenzylamino)hexyl)-9-azabicyclo[3.3.1]nonan-3α-yl)-N-(2-methoxy-5-methylphenyl)carbamate oxalate] | 0.112 ± 0.0048 µM | 12.57 | 0.00894 ± 0.00061 µM |  |
| COc1ccc(C)cc1NC(=O)OC1CC2CCCC(C1)N2CCCCCCNCc1cccc(F)c1 (stereo not drawn) [Compound 3b, N-(9-(6-(3′-Fluorobenzylamino)hexyl)-9-azabicyclo[3.3.1]nonan-3α-yl)-N-(2-methoxy-5-methylphenyl)carbamate oxalate] | 0.00046 ± 5e-05 µM | 0.09 | 0.00485 ± 0.00049 µM |  |
| COc1ccc(C)cc1NC(=O)O[C@H]1C[C@H]2CCC[C@@H](C1)N2CCCCCCNCc1cccc(I)c1 [Compound 3c, N-(9-(6-(3′-Iodobenzylamino)hexyl)-9-azabicyclo-[3.3.1]nonan-3α-yl)-N-(2-methoxy-5-methylphenyl)carbamate oxalate] | 0.00056 ± 6e-05 µM | 0.02 | 0.0327 ± 0.00593 µM |  |
| COc1ccc(C)cc1NC(=O)OC1CC2CCCC(C1)N2CCCCCCNCc1ccc(Br)cc1 (stereo not drawn) [Compound 3d, N-(9-(6-(4′-Bromobenzylamino)hexyl)-9-azabicyclo[3.3.1]nonan-3α-yl)-N-(2-methoxy-5-methylphenyl)carbamate oxalate] | 0.0432 ± 0.00288 µM | 4.35 | 0.00993 ± 0.00161 µM |  |
| COc1ccc(C)cc1NC(=O)OC1CC2CCCC(C1)N2CCCCCCNCc1ccc(F)cc1 (stereo not drawn) [Compound 3e, N-(9-(6-(4′-Fluorobenzylamino)hexyl)-9-azabicyclo[3.3.1]nonan-3α-yl)-N-(2-methoxy-5-methylphenyl)carbamate oxalate] | 0.001 ± 0.00026 µM | 0.01 | 0.0709 ± 0.00438 µM |  |
| COc1ccc(C)cc1NC(=O)OC1CC2CCCC(C1)N2CCCCCCNCc1ccc(I)cc1 (stereo not drawn) [Compound 3f, N-(9-(6-(4′-Iodobenzylamino)hexyl)-9-azabicyclo[3.3.1]nonan-3α-yl)-N-(2-methoxy-5-methylphenyl)carbamate oxalate] | 0.00065 ± 9e-05 µM | 0.02 | 0.0359 ± 0.0015 µM |  |
| COc1ccc(C)cc1NC(=O)OC1CC2CCCC(C1)N2CCCCCCNC(=O)c1ccc(Cl)cc1 (stereo not shown) [Compound 4a] | 1.4 ± 0.064 µM | 392 | 0.00356 ± 8e-05 µM | affinity and selectivity for σ2 versus σ1 receptors (in words) [2]: high affinity and selectivity |
| COc1ccc(C)cc1NC(=O)OC1CC2CCCC(C1)N2CCCCCCNC(=O)c1ccc(Br)cc1 (stereo not drawn) [Compound 4b, N-(9-(4-(4′-Bromobenzoylamino)hexyl)-9-azabicyclo[3.3.1]nonan-3α-yl)-N-(2-methoxy-5-methylphenyl)carbamate oxalate] | 2.04 ± 0.098 µM | 2.84 |  | Ki ([2]; read-out: Ki σ2): 0.719 ± 0.084 µM |
| COc1ccc(C)cc1NC(=O)OC1CC2CCCC(C1)N2CCCCCCNS(=O)(=O)c1cccc2c(N(C)C)cccc12 (stereo not drawn) [Compound 9, N-(9-(6-(5-Dimethylamino-1-naphthalenesulfonamido))hexyl)-9-azabicyclo[3.3.1]-nonan-3α-yl-N-(2-methoxy-5-methylphenyl)carbamate oxalate] | 12.6 µM | 85.43 |  | affinity and selectivity for σ2 versus σ1 receptors (in words) [2]: moderate affinity and selectivity; Ki ([2]; read-out: Ki σ2): 0.148 ± 0.00885 µM |
| O=C(CCCN1CCC(O)(c2ccc(Cl)cc2)CC1)c1ccc(F)cc1 [Haloperidol, reference compound] |  |  |  | apoptosis in all pancreas cancer cell lines tested [4]: dose-dependent apoptosis |
| COc1ccc(C)cc1NC(=O)OC1C[C@H]2CCC[C@@H](C1)N2CCCCCCN (stereo partly shown) [SV119] |  | 273 |  | Ki [3]: 1.42 µM; Ki [2, 7]: 0.0052 µM |
| COC(=O)CC[C@H](NC(=O)[C@H](CC(=O)OC)NC(=O)OCc1ccccc1)C(=O)N[C@H](C(=O)N[C@@H](CC(=O)OC)C(=O)CF)C(C)C [Z-DEVD-FMK] |  |  |  | effect on cell death / cytotoxic effects induced by the three σ2 selective ligands [5]: partially blocked; also recorded: partially, but not completely, blocked |
| N-(9-(4-(4′-Fluorobenzoylamino)hexyl)-9-azabicyclo[3.3.1]nonan-3α-yl)-N-(2-methoxy-5-methylphenyl)carbamate oxalate [Compound 4c] |  | 2.50 |  | Ki [3]: 1.24 ± 0.212 µM; Ki [2, 7]: 0.497 ± 0.103 µM |
| N-(9-(4-(40-Iodobenzoylamino)hexyl)-9-azabicyclo[3.3.1]nonan-3α-yl)-N-(2-methoxy-5-methylphenyl)carbamate oxalate [Compound 4d] |  | 1.40 |  | Ki [3]: 1.41 ± 0.318 µM; Ki [2, 7]: 1.01 µM |
